Experiment [1] deals with T1, recombinant human catalytic domain of MMP-13 (Homo sapiens, UniProt P45452).
T1 construct: catalytic domain of MMP-13 (165 amino acids, residues 104-268, 19 kDa)
The experiment in a line: In vitro fluorescence assay of MMP-13 activity. Particulars: Table 1; unit inferred. It is filed as biochemical.

In experiment [2] the target is T2, purified recombinant human Aggrecanase-1 (rAgg1) (Homo sapiens, UniProt O75173).
T2 sequence (O75173 213-837): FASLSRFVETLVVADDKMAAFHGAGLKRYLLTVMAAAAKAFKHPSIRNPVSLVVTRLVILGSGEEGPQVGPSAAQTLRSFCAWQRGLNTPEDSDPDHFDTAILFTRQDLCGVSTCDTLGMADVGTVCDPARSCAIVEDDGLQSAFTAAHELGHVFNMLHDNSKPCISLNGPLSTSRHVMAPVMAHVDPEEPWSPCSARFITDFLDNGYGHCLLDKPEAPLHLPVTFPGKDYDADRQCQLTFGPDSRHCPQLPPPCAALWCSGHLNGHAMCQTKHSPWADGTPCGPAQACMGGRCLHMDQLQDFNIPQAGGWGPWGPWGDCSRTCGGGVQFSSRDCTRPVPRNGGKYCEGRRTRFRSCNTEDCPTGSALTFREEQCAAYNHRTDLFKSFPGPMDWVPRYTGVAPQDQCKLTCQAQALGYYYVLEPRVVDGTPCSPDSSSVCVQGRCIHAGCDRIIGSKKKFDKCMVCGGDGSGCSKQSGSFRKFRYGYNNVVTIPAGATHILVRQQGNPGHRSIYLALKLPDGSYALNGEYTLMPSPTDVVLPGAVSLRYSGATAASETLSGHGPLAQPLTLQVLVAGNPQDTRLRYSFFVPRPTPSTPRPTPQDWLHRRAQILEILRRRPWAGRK
The experiment in a line: In vitro fluorescence screen for Aggrecanase-1 inhibitors. It is filed as biochemical. Particulars: Table 1; for Ki: enzyme not given, column follows Agg1 IC50, read-out: Ki; for IC50: read-out: Agg1 IC50.

For experiment [3], the system named is bovine articular cartilage treated with Interleukin 1 alpha (IL-1α). The experiment in a line: Bovine articular cartilage explant cultures: inhibition of degradation of proteoglycan. In kind it is cell-based. Particulars: inhibitory effect expressed as percentage, concentration not printed. The source says: This in vitro procedure was used to evaluate the effect and relative potencies of small molecule compounds to inhibit the degradation of proteoglycan in articular cartilage treated with Interleukin 1 alpha (IL-1α). Treatment of articular cartilage with IL 1α induces expression of a cascade of enzymes that initiates cartilage matrix degradation. This assay was utilized to select small molecule compounds that inhibit the enzyme activity and protects cartilage matrix degradation.
Articular cartilage: bovine metacarpal joints were disinfected with 10% Wescodyne followed by 70% ethanol. 6 mm articular cartilage discs were prepared and rinsed once in PBS and medium, respectively. The discs were cultured in a stirring flask with serum-free medium for 5 days for equilibrium with one medium change. Small molecule compounds: stock solutions of test small molecule compounds (usually at 5 mg/ml) were prepared in DMSO. Working solutions were diluted with DMSO and generally ranged from 0.1 μg/ml to 10 ug/ml. The DMSO stocks were stored at […]. Articular cartilage explant culture medium: DMEM, 2 mM glutamax, 100 U/ml of antibiotic and antimycotic, 50 μg/ml ascorbate and 10 mM Hepes (pH-7.0). Proteoglycan content-Dimethyl methylene blue (DMMB) solution: […] DMMB, 10 ml 100% ethanol, 29.5 ml of 1M NaOH, 3.5 ml of 98% formic acid and water to 1 L. Chondroitin sulphate sodium salt: 1.56-200 ug/ml serial dilutions.
For the explant culture, cartilage discs were cultured in serum-free medium for 48 h or more. Discs were weighed and transferred to a 96-well plate, 1 disc per-well. 0.2 ml of medium containing 5 ng/ml of IL-1 and different concentrations of compounds were added to each well, with 3 wells allocated for each treatment. The medium was collected at days 1, 2, & 3 and replaced accordingly.
For the DMMB assay, conditioned medium (CM) samples were diluted with medium. 10 ul of each standard or diluted sample was added in duplicate into a 96-well-plate and 200 μl of DMMB solution was added into each well. Absorbance at 520 nm was measured for each well. Proteoglycan contents in CM were calculated daily.
The proteoglycan contents are expressed as ug per mg of cartilage. The inhibitory effect of the compounds is expressed as percentage. (See, Tortorella, M. D. et al., Science 1999, 284, 1664-1666).

The next experiment deals with T3, recombinant human MMP-2 (Homo sapiens, UniProt P08253).
T3 sequence (P08253 110-660): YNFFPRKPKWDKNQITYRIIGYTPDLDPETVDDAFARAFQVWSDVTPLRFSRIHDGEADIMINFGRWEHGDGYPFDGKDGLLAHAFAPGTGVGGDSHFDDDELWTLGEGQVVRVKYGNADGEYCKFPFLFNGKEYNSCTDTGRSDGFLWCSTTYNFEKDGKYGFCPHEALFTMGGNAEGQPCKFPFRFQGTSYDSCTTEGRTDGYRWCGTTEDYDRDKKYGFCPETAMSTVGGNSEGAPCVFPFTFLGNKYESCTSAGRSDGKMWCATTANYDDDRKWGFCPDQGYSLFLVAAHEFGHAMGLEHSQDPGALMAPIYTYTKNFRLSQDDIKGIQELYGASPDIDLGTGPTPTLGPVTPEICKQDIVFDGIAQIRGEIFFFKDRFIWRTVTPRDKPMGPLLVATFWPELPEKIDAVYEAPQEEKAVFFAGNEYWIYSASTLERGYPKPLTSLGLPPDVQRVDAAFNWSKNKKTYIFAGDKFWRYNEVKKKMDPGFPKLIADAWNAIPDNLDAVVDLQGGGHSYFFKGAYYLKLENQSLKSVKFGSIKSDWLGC
The experiment in a line: In vitro fluorescence assay of MMP-2 activity.

In experiment [4] the target is T4, recombinant human catalytic domain of MMP-14 (Homo sapiens, UniProt P50281).
T4 construct: 177 amino acids corresponding to Tyr89-Gly265 of mature human enzyme; purchased Chemicon International, Inc. CC1041
Kind of experiment: In vitro fluorescence assay of MMP-14 activity. In kind it is biochemical. The settings on record: Table 1; for IC50: unit inferred.

The target in experiment [5] is T5, purified recombinant human Aggrecanase-2 (Ag2t-Phe628-Strep) (Homo sapiens, UniProt Q9UNA0).
T5 construct: the form used is denoted as Ag2t-Phe628-Strep (MW=41,737)
T5 sequence (Q9UNA0 262-628): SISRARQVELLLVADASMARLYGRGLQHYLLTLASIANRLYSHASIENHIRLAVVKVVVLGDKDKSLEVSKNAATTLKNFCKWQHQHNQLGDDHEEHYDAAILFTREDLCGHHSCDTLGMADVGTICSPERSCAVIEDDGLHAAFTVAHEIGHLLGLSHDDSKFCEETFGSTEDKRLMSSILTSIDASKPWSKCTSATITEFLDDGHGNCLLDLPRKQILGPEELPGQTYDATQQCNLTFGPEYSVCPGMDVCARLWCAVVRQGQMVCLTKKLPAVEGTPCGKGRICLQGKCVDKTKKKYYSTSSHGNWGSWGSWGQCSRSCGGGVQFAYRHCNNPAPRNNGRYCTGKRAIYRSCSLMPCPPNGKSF
The experiment in a line: In vitro fluorescence screen for Aggrecanase-2 inhibitors. In kind it is biochemical. The settings on record: Table 1; read-out: Agg 2 IC50.

A further experiment deals with T6, MMP-1 (Homo sapiens, UniProt P03956).
T6 sequence (P03956 100-469): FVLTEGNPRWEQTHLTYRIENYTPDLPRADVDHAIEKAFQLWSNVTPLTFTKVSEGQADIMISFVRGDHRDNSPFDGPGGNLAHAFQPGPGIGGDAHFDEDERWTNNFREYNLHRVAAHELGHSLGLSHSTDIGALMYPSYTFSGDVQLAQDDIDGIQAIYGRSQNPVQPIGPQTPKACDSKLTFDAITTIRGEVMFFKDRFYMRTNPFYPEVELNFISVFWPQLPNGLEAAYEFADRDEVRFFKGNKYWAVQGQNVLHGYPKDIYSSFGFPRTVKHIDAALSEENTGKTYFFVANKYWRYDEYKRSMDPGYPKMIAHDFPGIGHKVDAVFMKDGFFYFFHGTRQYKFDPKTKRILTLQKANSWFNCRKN
Kind of experiment: MMP-1 of Table 1. In kind it is biochemical. The settings on record: for IC50: unit inferred; for MMP-1: unit not given.

The mark [6] stands for this setting: Table 1, first of two columns headed bovine.
The mark [7] stands for this setting: Table 1, second of two columns headed bovine.

Structures are written as SMILES.

The term IC50 denotes the midpoint of a concentration-inhibition curve. The Ki is a dissociation constant, usually derived from enzyme kinetics or from competition with a known ligand. Consider `C=Cc1ccc(CNC(=O)[C@H](CCC(=O)O)NC(=O)c2ccc(-c3ccccc3)cc2)cc1` [Example 10R, N^2-(1,1′-biphenyl-4-ylcarbonyl)-N^1-(4-vinylbenzyl)-L-α-glutamine], for which the IC50 in experiment [1] is > 20 µM; in experiment [2], 0.077 µM; on recombinant human MMP-2 it was > 20 µM; in experiment [4], > 200 µM; in experiment [5], 1.9 µM; on MMP-1, > 50 µM. In experiment [2], the Ki was 0.187 µM. Further, the bovine in experiment [3] (setting [6]) amounted to 41%; in experiment [3] (setting [7]), 0%.

For the molecule `CCCCNC(=O)[C@H](CCC(=O)O)NC(=O)c1ccc(-c2ccccc2)cc1` [Example 8C, N^2-(1,1′-biphenyl-4-ylcarbonyl)-N^1-butyl-L-α-glutamine], the IC50 is ~50 µM in experiment [1]; 0.11 µM in experiment [2]; 6 µM at recombinant human MMP-2; ~25 µM in experiment [4]; 1.2 µM in experiment [5]; > 100 µM against MMP-1. The bovine was determined as 68% in experiment [3] (setting [6]) and 34% in experiment [3] (setting [7]).

Take `O=C(O)CC[C@H](NC(=O)c1ccc(-c2ccccc2)cc1)C(=O)NCc1cccc(-c2cccs2)c1` [Example 10N, N^2-(1,1′-biphenyl-4-ylcarbonyl)-N^1-(3-thien-2-ylbenzyl)-L-α-glutamine]: the IC50 in experiment [1] is > 50 µM; in experiment [2], 0.019 µM; on recombinant human MMP-2 it was 7.6 µM; in experiment [4] it was > 200 µM; in experiment [5] it was 0.97 µM; at MMP-1 it was > 200 µM. In addition, the Ki in experiment [2] was 0.028 µM. Further, the bovine in experiment [3] (setting [6]) is 65%; in experiment [3] (setting [7]), 24%.

Consider `O=C(O)CC[C@H](NC(=O)c1ccc(-c2cccs2)cc1)C(=O)NCc1ccccc1` [Example 11, N^1-benzyl-N^2-(4-thien-2-ylbenzoyl)-L-α-glutamine], for which the IC50 in experiment [1] was ~5 µM; in experiment [2] it was 0.11 µM; on recombinant human MMP-2, ~1 µM; in experiment [4], ~2 µM; in experiment [5], ~0.8 µM; against MMP-1, ~2 µM. Also, the figures for the bovine in experiment [3] (setting [6]) and in experiment [3] (setting [7]) were 78% and 52%, respectively.

In the case of `O=C(O)CC[C@H](NC(=O)c1ccc(-c2ccccc2)cc1)C(=O)NCc1ccc(Cl)c(Cl)c1` [Example 8BB, N^2-(1,1′-biphenyl-4-ylcarbonyl)-N^1-(3,4-dichlorobenzyl)-L-α-glutamine], the IC50 in experiment [1] was 19 µM; in experiment [2], 0.074 µM; on recombinant human MMP-2, 2.3 µM; in experiment [4] it was ~25 µM; in experiment [5], 0.65 µM. Also, at MMP-1, the MMP-1 entry is recorded as “no inh”.

As to `O=C(O)CC[C@H](NC(=O)c1ccc(-c2ccccc2)cc1)C(=O)NCCc1ccccc1Cl` [Example 8VV, N^2-(biphenyl-4-ylcarbonyl)-N^1-[2-(2-chlorophenyl)ethyl]-L-α-glutamine], the IC50 in experiment [1] was ~50 µM; in experiment [2], 0.1 µM; on recombinant human MMP-2, 9.1 µM; in experiment [4], > 66.6 µM; in experiment [5], 1.9 µM. The MMP-1 entry on MMP-1 is recorded as “no inh”.

As for `CC(C)(Cc1ccc(F)cc1)NC(=O)C(CCC(=O)O)NC(=O)c1ccc(-c2ccccc2)cc1` (racemic) [Example 8GGGG, N^2-(biphenyl-4-ylcarbonyl)-N^1-[2-(4-fluorophenyl)-1,1-dimethylethyl]-α-glutamine], the IC50 was > 50 µM in experiment [1], 0.03 µM in experiment [2], 18.6 µM at recombinant human MMP-2 and 0.16 µM in experiment [5]. Besides, in experiment [4] (unit not given), the MMP-14 entry was “no inh”. Also, the MMP-1 entry on MMP-1 was “no inh”.

For `O=C(O)CC[C@H](NC(=O)c1ccc(-c2ccccc2)cc1)C(=O)NCc1ccc(F)cc1` [Example 8D, N^2-(1,1′-biphenyl-4-ylcarbonyl)-N^1-(4-fluorobenzyl)-L-α-glutamine], the IC50 in experiment [1] is ~25 µM; in experiment [2], 0.22 µM; at recombinant human MMP-2, 4.4 µM; in experiment [4], 17 µM; at MMP-1 it was > 100 µM. The bovine in experiment [3] (setting [6]) is reported as 67%; in experiment [3] (setting [7]), 27%.

`O=C(O)CC[C@H](NC(=O)c1ccc(-c2ccccc2)cc1)C(=O)NCc1ccc(Oc2ccccc2)cc1` [Example 8W, N^2-(1,1′-biphenyl-4-ylcarbonyl)-N^1-(4-phenoxybenzyl)-L-α-glutamine]: the IC50 was ~22 µM in experiment [1]; 0.075 µM in experiment [2]; ~2.5 µM on recombinant human MMP-2; ~25 µM in experiment [4]; 0.971 µM in experiment [5]. At MMP-1, the MMP-1 entry was “no inh”.

These data come from US7998965B2, “Glutamate aggrecanase inhibitors” (Wyeth LLC, priority 2005, dated 2011).
